Data on 19 compounds can be found in ChEMBL document CHEMBL4190255, “Novel celastrol derivatives with improved selectivity and enhanced antitumour activity: Design, synthesis and biological evaluation” (Eur J Med Chem, 2017).

Where only a bound is given, the exact number is not on record here.

The test system of one data set is A549. Briefly: Antiproliferative activity against human A549 cells after 72 hrs by MTT assay. The data set is classed as functional, cell-based. The following applies: A549, 72 h. Background: Tetrazolium dyes change colour on reduction, which living cells bring about.
The next data set concerns MIA PaCa-2. Briefly: Antiproliferative activity against human MIAPaCa2 cells after 72 hrs by MTT assay. In kind it is functional, cell-based. The following applies: MIA PaCa-2, 72 h.
Another data set concerns SK-BR-3. Briefly: Antiproliferative activity against human SKBR3 cells after 72 hrs by MTT assay. The following applies: SK-BR-3, 72 h. The data set is classed as functional, cell-based.
Data set [1] can be described thus: Selectivity index, ratio of IC50 for human BJ cells to IC50 for human A549 cells. The following applies: BJ cells versus A549 cells, read-out: Ratio IC50. The data set is classed as toxicity.
The nature of data set [2]: Selectivity index, ratio of IC50 for human BJ cells to IC50 for human MIAPaCa2 cells. The data set is classed as toxicity. Conditions: BJ cells versus MIAPaCa2 cells, read-out: Ratio IC50.
Data set [3] in a line: Selectivity index, ratio of IC50 for human BJ cells to IC50 for human SKOV3 cells. The data set is classed as toxicity. The following applies: BJ cells versus SKOV3 cells, read-out: Ratio IC50.
Another data set relates to BJ. Briefly: Cytotoxicity against human BJ cells assessed as reduction in cell viability after 72 hrs by MTT assay. The data set is classed as cell-based.

In the case of `CNC(=O)N[C@]1(C)CC[C@]2(C)CC[C@]3(C)C4=CC(=O)c5c(cc(O)c(O)c5C)[C@]4(C)CC[C@@]3(C)[C@@H]2C1`, the IC50 (in general, the concentration needed to halve the response being measured) is above 15 µM with A549 and above 5 µM in the data set with MIA PaCa-2.
On the same counts, the results for `CC(=O)Oc1cc2c(c(C)c1OC(C)=O)CC=C1[C@@]2(C)CC[C@@]2(C)[C@@H]3C[C@](C)(N=C=O)CC[C@]3(C)CC[C@]12C` are 2.89 µM and 1.41 µM.
On the same counts, the results for `Cc1c(O)c(O)cc2c1C(=O)C=C1[C@@]2(C)CC[C@@]2(C)[C@@H]3C[C@](C)(NC(N)=O)CC[C@]3(C)CC[C@]12C` are above 15 µM and above 5 µM.
As for `CC1=C(O)C(=O)C=C2C1=CC=C1[C@@]2(C)CC[C@@]2(C)[C@@H]3C[C@](C)(NC(=O)NCc4ccc(C)cc4)CC[C@]3(C)CC[C@]12C`, the IC50 in the data set on A549 is 2.45 µM; in the data set with MIA PaCa-2, 0.45 µM.
For the compound `CNC(=O)N[C@]1(C)CC[C@]2(C)CC[C@]3(C)C4=CC(=O)c5c(cc(OC)c(OC)c5C)[C@]4(C)CC[C@@]3(C)[C@@H]2C1`, the IC50 in the data set with A549 was above 15 µM; with MIA PaCa-2 it was above 5 µM.
Turning to `CCCNC(=O)N[C@]1(C)CC[C@]2(C)CC[C@]3(C)C4=CC=C5C(=CC(=O)C(O)=C5C)[C@]4(C)CC[C@@]3(C)[C@@H]2C1`, the half-inhibitory concentration (IC50) stood at 1.26 µM in the data set with A549 and 0.66 µM in the data set on MIA PaCa-2.
With `CC1=C(O)C(=O)C=C2C1=CC=C1[C@@]2(C)CC[C@@]2(C)[C@@H]3C[C@](C)(NC(=O)Nc4ccccc4)CC[C@]3(C)CC[C@]12C`, the values for the IC50 in the data set on A549 and with MIA PaCa-2 were 2.27 µM and 0.4 µM, respectively.
In the data set with SK-BR-3, `CC1=C(O)C(=O)C=C2C1=CC=C1[C@@]2(C)CC[C@@]2(C)[C@@H]3C[C@](C)(C(=O)O)CC[C@]3(C)CC[C@]12C` [CELASTROL] returned an IC50 of 0.72 µM. The figures for the selectivity ratio in data set [1], in data set [2] and in data set [3] were 1.75, 5.97 and 2.34, respectively.
For `CC1=C(O)C(=O)C=C2C1=CC=C1[C@@]2(C)CC[C@@]2(C)[C@@H]3C[C@](C)(NC(=O)Nc4ccccc4N)CC[C@]3(C)CC[C@]12C`, the half-inhibitory concentration (IC50) in the data set with A549 turned out to be 2.99 µM; in the data set with MIA PaCa-2, 0.56 µM.
Turning to `CNC(=O)N[C@]1(C)CC[C@]2(C)CC[C@]3(C)C4=CC=C5C(=CC(=O)C(O)=C5C)[C@]4(C)CC[C@@]3(C)[C@@H]2C1`, the half-inhibitory concentration (IC50) with BJ came to 1.96 µM; in the data set with A549, 1.45 µM; in the data set with MIA PaCa-2 it was 0.41 µM. In addition, the selectivity ratio in data set [1] was 1.36; in data set [2], 4.72.
With `Cc1c(O)c(O)cc2c1C(=O)C=C1[C@@]2(C)CC[C@@]2(C)[C@@H]3C[C@](C)(C(=O)O)CC[C@]3(C)CC[C@]12C`, the IC50 was above 15 µM in the data set with A549 and above 5 µM in the data set with MIA PaCa-2.
As to `CC(=O)Oc1cc2c(c(C)c1OC(C)=O)C(=O)C=C1[C@@]2(C)CC[C@@]2(C)[C@@H]3C[C@](C)(N=C=O)CC[C@]3(C)CC[C@]12C`, the results for the IC50 in the data set on A549 and with MIA PaCa-2 were above 15 µM and above 5 µM, respectively.
On the same counts, the results for `CC1=C(O)C(=O)C=C2C1=CC=C1[C@@]2(C)CC[C@@]2(C)[C@@H]3C[C@](C)(NC(N)=O)CC[C@]3(C)CC[C@]12C` are 2.48 µM and 0.63 µM.
Turning to `CCNC(=O)N[C@]1(C)CC[C@]2(C)CC[C@]3(C)C4=CC=C5C(=CC(=O)C(O)=C5C)[C@]4(C)CC[C@@]3(C)[C@@H]2C1`, the IC50 was 1.41 µM in the data set on A549 and 0.55 µM with MIA PaCa-2.
On the same counts, the results for `CC1=C(O)C(=O)C=C2C1=CC=C1[C@@]2(C)CC[C@@]2(C)[C@@H]3C[C@](C)(NC(=O)NO)CC[C@]3(C)CC[C@]12C` are 3.5 µM and 0.85 µM.
In the same order, the values of `CC(=O)Oc1cc2c(c(C)c1OC(C)=O)C(=O)C=C1[C@@]2(C)CC[C@@]2(C)[C@@H]3C[C@](C)(C(=O)O)CC[C@]3(C)CC[C@]12C` are above 15 µM and above 5 µM.
For the compound `CCCCNC(=O)N[C@]1(C)CC[C@]2(C)CC[C@]3(C)C4=CC=C5C(=CC(=O)C(O)=C5C)[C@]4(C)CC[C@@]3(C)[C@@H]2C1`, the concentration for half-maximal inhibition (IC50) in the data set with BJ is 2.12 µM; in the data set with A549, 1.44 µM; in the data set on MIA PaCa-2, 0.31 µM. In addition, the selectivity ratio is 1.48 in data set [1] and 6.94 in data set [2].
As to `CC1=C(O)C(=O)C=C2C1=CC=C1[C@@]2(C)CC[C@@]2(C)[C@@H]3C[C@](C)(NC(=O)NCc4ccc(F)cc4)CC[C@]3(C)CC[C@]12C`, the values for the concentration for half-maximal inhibition (IC50) in the data set with A549 and in the data set with MIA PaCa-2 were 4.34 µM and 0.56 µM, respectively.
On the same counts, the results for `CC1=C(O)C(=O)C=C2C1=CC=C1[C@@]2(C)CC[C@@]2(C)[C@@H]3C[C@](C)(NC(=O)NCCc4ccccc4)CC[C@]3(C)CC[C@]12C` are 1.66 µM and 0.41 µM.
